From the supplement of paper PMC10307832

Key:
Assay in all cases: relative viability (nuclei count vs DMSO), 5 days (fraction); higher = more cells survive
Dasatinib + Alpelisib = compound: Cc1nc(Nc2ncc(C(=O)Nc3c(C)cccc3Cl)s2)cc(N2CCN(CCO)CC2)n1 [Dasatinib] + Cc1nc(NC(=O)N2CCC[C@H]2C(N)=O)sc1-c1ccnc(C(C)(C)C(F)(F)F)c1 [Alpelisib] (partner 2 µM)
Summary of the method: (§1)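 Lung cancer cell lines were seeded in 1536-well plates and dosed by pin tool the next day, with either a single drug or a fixed anchor-drug dose combined with five library-drug doses (not always all listed) spaced in √10 steps. Five days later, one step fixed the cells and stained their nuclei (final 0.05% Triton X-100, 1% formaldehyde, 1 ug/ml Hoechst), and nuclei were counted on 4× images. Relative viability is the nuclei count in treated wells divided by the count in vehicle wells, and each value is the median of duplicate plates.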

XMD13-2 + Olaparib = compound: C1CC1C(=O)NC2=NNC3=C2C=CC(=C3)C4=CC(=CC=C4)C(=O)NC5CC5 [XMD13-2] + O=C(c1cc(Cc2n[nH]c(=O)c3ccccc23)ccc1F)N1CCN(C(=O)C2CC2)CC1 [Olaparib] (partner 8 µM)
Summary of the method: as §1

XMD13-2 + Decitabine = compound: C1CC1C(=O)NC2=NNC3=C2C=CC(=C3)C4=CC(=CC=C4)C(=O)NC5CC5 [XMD13-2] + Nc1ncn([C@H]2C[C@H](O)[C@@H](CO)O2)c(=O)n1 [Decitabine] (partner 2 µM)
Summary of the method: as §1

ALW-II-49-7 + Tozasertib = compound: Cc1ccc(C(=O)Nc2cccc(C(F)(F)F)c2)cc1Nc1cncc(C(N)=O)c1 [ALW-II-49-7] + Cc1cc(Nc2cc(N3CCN(C)CC3)nc(Sc3ccc(NC(=O)C4CC4)cc3)n2)n[nH]1 [Tozasertib] (partner 0.1 µM)
Summary of the method: as §1

Cell Line | relative viability (Dasatinib + Alpelisib; first compound 0.005 µM) | relative viability (Dasatinib + Alpelisib; first compound 0.01581 µM) | relative viability (Dasatinib + Alpelisib; first compound 0.05 µM) | relative viability (Dasatinib + Alpelisib; first compound 0.1581 µM) | relative viability (Dasatinib + Alpelisib; first compound 0.5 µM) | relative viability (XMD13-2 + Olaparib; first compound 0.05 µM) | relative viability (XMD13-2 + Olaparib; first compound 0.1581 µM) | relative viability (XMD13-2 + Olaparib; first compound 1.581 µM) | relative viability (XMD13-2 + Olaparib; first compound 5 µM) | relative viability (XMD13-2 + Decitabine; first compound 0.05 µM) | relative viability (XMD13-2 + Decitabine; first compound 0.1581 µM) | relative viability (XMD13-2 + Decitabine; first compound 0.5 µM) | relative viability (XMD13-2 + Decitabine; first compound 1.581 µM) | relative viability (XMD13-2 + Decitabine; first compound 5 µM) | relative viability (ALW-II-49-7 + Tozasertib; first compound 0.08 µM) | relative viability (ALW-II-49-7 + Tozasertib; first compound 0.253 µM) | relative viability (ALW-II-49-7 + Tozasertib; first compound 0.8 µM) | relative viability (ALW-II-49-7 + Tozasertib; first compound 2.53 µM) | relative viability (ALW-II-49-7 + Tozasertib; first compound 8 µM) | relative viability (XMD13-2 + Olaparib; first compound 0.5 µM)
Calu-6 | 0.801 | 0.665 | 0.731 | 0.613 | 0.576 | 0.615 | 0.586 | 0.605 | 0.512 |  |  |  |  |  |  |  |  |  |  | 
ChaGo-K-1 |  |  |  |  |  | 0.439 | 0.436 | 0.387 | 0.358 | 0.521 | 0.53 | 0.528 | 0.511 | 0.496 | 0.248 | 0.238 | 0.22 | 0.212 | 0.2 | 0.438
EBC-1 | 0.78 | 0.755 | 0.579 | 0.579 | 0.463 | 0.768 | 0.78 | 0.545 | 0.277 |  |  |  |  |  |  |  |  |  |  | 0.837
EKVX | 0.774 | 0.637 | 0.651 | 0.557 | 0.145 | 0.984 | 0.871 |  | 0.907 | 0.395 | 0.32 | 0.419 |  | 0.307 | 0.323 | 0.413 | 0.344 | 0.322 | 0.381 | 0.907
EMC-BAC-2 | 0.632 | 0.478 | 0.466 | 0.285 | 0.194 | 0.575 | 0.526 | 0.465 | 0.439 | 1.09 | 0.967 | 0.997 |  | 0.878 | 0.267 | 0.273 | 0.276 | 0.203 | 0.199 | 0.499
EPLC-272H | 1.08 | 0.913 | 1.02 | 0.777 | 0.244 | 0.976 | 0.854 | 0.528 | 0.172 | 0.363 | 0.391 | 0.485 | 0.339 | 0.314 | 0.127 |  | 0.257 | 0.298 | 0.27 | 0.748
H3255 | 0.68 | 0.621 | 0.63 | 0.434 | 0.24 | 0.635 | 0.634 | 0.519 | 0.558 | 0.749 | 0.72 | 0.532 |  | 0.603 | 0.724 | 0.613 | 0.675 | 0.625 | 0.42 | 0.584
HARA | 0.778 | 0.723 | 0.57 | 0.27 | 0.193 | 0.76 | 1.11 | 0.987 | 0.643 | 0.654 | 0.558 | 0.584 | 0.613 | 0.492 | 0.0918 | 0.121 | 0.114 | 0.0912 | 0.0839 | 0.831
